According to US12030877B2, “Prostaglandin E synthase inhibitors and methods for utilizing the same” (University of Kentucky Research Foundation, priority 2016, dated 2024):
Where two headings read alike, the source gives them in different places.

Legend:
mPGES-1 Mouse enzyme = biological target: T1, mPGES-1 Mouse enzyme (Mus musculus, UniProt Q9JM51); experiment: mPGES-1 enzyme activity assay (PGE2 enzyme immunoassay), mouse enzyme; assay type: biochemical; details: for inhibition at 10 µM: compound at a concentration of 10 μM, read-out: % inhibition of the compound against mPGES-1, Mouse enzyme; for IC50: IC50 against mPGES-1, Mouse enzyme, recombinant microsomal enzyme, means ± SD, triplicate
T1 construct: made in house; host or cells: FreeStyle 293-F cells, crude microsomal preparation
T1 sequence (Q9JM51 1-153): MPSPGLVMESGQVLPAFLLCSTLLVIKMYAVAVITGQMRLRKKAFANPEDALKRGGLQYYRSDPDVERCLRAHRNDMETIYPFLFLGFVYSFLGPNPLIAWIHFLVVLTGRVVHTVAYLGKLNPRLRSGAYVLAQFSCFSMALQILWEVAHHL
Method: (§1) Studies were conducted to characterize the inhibitory activity against recombinant mPGES-1 of the compounds synthesized in accordance with Examples 1-4, and disclosed herein.
(§2) Briefly, FreeStyle 293-F cells were cultured following manufacturer's manual in FreeStyle 293 expression medium on orbit rotate shaker in 8% CO2 incubator at 37° C. Cells were transfected with 1.5 μg/mL of mPGES-1/pcDNA3 construct using FreeStyle Max reagent at a cell density of 1×10^6 for 2 days. Transfected cells were collected, washed, and sonicated in TSES buffer (15 mM Tris-HCl, pH 8.0 plus 0.25 M sucrose, 0.1 mM EDTA and 1 mM DTT) on ice. The broken cells were first centrifuged at 12,500×g for 10 min. The supernatant was further centrifuged at 105,000×g for 1 hr at 4° C. The pellet was washed and homogenized in PBS buffer. The crude microsomal mPGES-1 preparation was aliquoted and stored at −80° C. The crude protein concentration was 8 mg/mL.
(§3) The enzyme activity assays were performed on ice in 1.5 ml microfuge tubes by using the expressed mPGES-1. The reaction mixture contained: 0.2 M Na2HPO4/NaH2PO4, pH 7.2, 10 μL; 0.1 M GSH, 2.5 μL; diluted microsomal enzyme (80 μg/mL), 1 μL; PGH2 (0.31 mM in DMF), 5 μL; 1 μL inhibitor; and H2O in a final reaction volume of 100 μL. PGH2 was stored in dry ice and used to initiate the reaction.
(§4) Compounds were incubated with the enzyme for 15 min at room temperature before the addition of cold PGH2 (1 μM final) to initiate the enzyme reaction. After 30 s, 10 μL of SnCl2 (40 mg/mL) in ethanol was added to stop the reaction. The nonenzymatic conversion of PGH2 to PGE2 was performed in the same buffer devoid of enzyme. The reaction mixture was placed on ice until PGE2 production was determined by the PGE2 enzyme immunoassay as described earlier. IC50 values of the inhibitors were calculated by using the GraphPad Prism 4.0 program. The results are set forth in the tables provided in Examples 7-10.

mPGES-1 = biological target: T2, mPGES-1 (Homo sapiens, UniProt O14684); experiment: mPGES-1 enzyme activity assay (PGE2 enzyme immunoassay), human enzyme; assay type: biochemical; parameters: made in house; host or cells: FreeStyle 293-F cells, crude microsomal preparation; details: recombinant microsomal enzyme, means ± SD, triplicate
T2 sequence (O14684 1-152): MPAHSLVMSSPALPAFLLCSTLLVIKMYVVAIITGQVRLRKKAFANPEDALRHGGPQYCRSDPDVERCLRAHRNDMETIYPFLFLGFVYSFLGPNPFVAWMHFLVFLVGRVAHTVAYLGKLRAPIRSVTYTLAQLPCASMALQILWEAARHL
Method: as §1, §2, §3, §4

[1] = read-out: IC50 against mPGES-1, Human enzyme
[2] = IC50 against mPGES-1, Human enzyme

| SMILES | inhibition at 10 µM (mPGES-1 Mouse enzyme) | IC50 (mPGES-1; [1]) | IC50 (mPGES-1 Mouse enzyme) | IC50 (mPGES-1; [2]) |
| --- | --- | --- | --- | --- |
| CCOc1ccc(-c2nn(-c3ccc(Cl)cc3)cc2C=C2C(=O)NC(=O)NC2=O)cc1 [VI-01] | 28% | 265 ± 96 nM | – | – |
| CCCCOc1ccc(-c2nn(-c3ccccc3)cc2C=C2C(=O)NC(=O)NC2=O)cc1 [VI-02] | – | 212 ± 34 nM | 2570 ± 628 nM | – |
| CCCCOc1ccc(-c2nn(-c3ccc(Cl)cc3)cc2C=C2C(=O)NC(=O)NC2=O)cc1 [VI-03] | – | 169 ± 41 nM | 357 ± 75 nM | – |
| CCCCCCOc1ccc(-c2nn(-c3ccc(Cl)cc3)cc2C=C2C(=O)NC(=O)NC2=O)cc1 [VI-04] | 46% | 285 ± 65 nM | – | – |
| CCCCCCCCOc1ccc(-c2nn(-c3ccccc3)cc2C=C2C(=O)NC(=O)NC2=O)cc1 [VI-05] | – | – | 2160 ± 188 nM | 323 ± 52 nM |
| CCCCCCCCOc1ccc(-c2nn(-c3ccc(Cl)cc3)cc2C=C2C(=O)NC(=O)NC2=O)cc1 [VI-06] | – | 361 ± 51 nM | 740 ± 108 nM | – |
| CCCCCCCCCCOc1ccc(-c2nn(-c3ccccc3)cc2C=C2C(=O)NC(=O)NC2=O)cc1 [VI-07] | 21% | – | – | 375 ± 127 nM |
| CCCCCCCCCCOc1ccc(-c2nn(-c3ccc(Cl)cc3)cc2C=C2C(=O)NC(=O)NC2=O)cc1 [VI-08] | 24% | 294 ± 83 nM | – | – |
| O=C1NC(=O)C(=Cc2cn(-c3ccccc3)nc2-c2ccc(OCc3ccccc3)cc2)C(=O)N1 [VI-09] | 0% | – | – | 598 ± 142 nM |
| CCOc1ccc(-c2nn(-c3ccc(Cl)cc3)cc2C=C2C(=O)NC(=S)NC2=O)cc1 [VI-10] | 46% | 95 ± 16 nM | – | – |
| CCCCOc1ccc(-c2nn(-c3ccccc3)cc2C=C2C(=O)NC(=S)NC2=O)cc1 [VI-11] | – | 92 ± 20 nM | 1260 ± 138 nM | – |
| CCCCOc1ccc(-c2nn(-c3ccc(Cl)cc3)cc2C=C2C(=O)NC(=S)NC2=O)cc1 [VI-12] | – | 56 ± 10 nM | 445 ± 83 nM | – |
| CCCCCCOc1ccc(-c2nn(-c3ccc(Cl)cc3)cc2C=C2C(=O)NC(=S)NC2=O)cc1 [VI-13] | – | 52 ± 15 nM | 1770 ± 1160 nM | – |
| CCCCCCCCOc1ccc(-c2nn(-c3ccccc3)cc2C=C2C(=O)NC(=S)NC2=O)cc1 [VI-14] | – | – | 1130 ± 131 nM | 113 ± 23 nM |
| CCCCCCCCOc1ccc(-c2nn(-c3ccc(Cl)cc3)cc2C=C2C(=O)NC(=S)NC2=O)cc1 [VI-15] | – | 92 ± 19 nM | 316 ± 30 nM | – |
| CCCCCCCCCCOc1ccc(-c2nn(-c3ccccc3)cc2C=C2C(=O)NC(=S)NC2=O)cc1 [VI-16] | 50% | – | – | 188 ± 31 nM |
| CCCCCCCCCCOc1ccc(-c2nn(-c3ccc(Cl)cc3)cc2C=C2C(=O)NC(=S)NC2=O)cc1 [VI-17] | 56% | 93 ± 14 nM | – | – |
| O=C1NC(=S)NC(=O)C1=Cc1cn(-c2ccccc2)nc1-c1ccc(OCc2ccccc2)cc1 [VI-18] | 25% | – | – | 797 ± 160 nM |
| CCOc1ccc(-c2nn(-c3ccc(Cl)cc3)cc2/C=C2\SC(=O)N(CC(=O)O)C2=O)cc1 [VII-10] | 35% | 41 ± 5 nM | – | – |
| CCCCCCOc1ccc(-c2nn(-c3ccc(Cl)cc3)cc2/C=C2\SC(=O)N(CC(=O)O)C2=O)cc1 [VII-11] | 37% | 36 ± 11 nM | – | – |
| CCOc1ccc(-c2nn(-c3ccc(Cl)cc3)cc2/C=C(/C#N)C(=O)O)cc1 [VII-12] | 12% | 282 ± 83 nM | – | – |
| CCCCOc1ccc(-c2nn(-c3ccccc3)cc2/C=C(/C#N)C(=O)O)cc1 [VII-13] | 21% | 296 ± 68 nM | – | – |
| CCCCOc1ccc(-c2nn(-c3ccc(Cl)cc3)cc2/C=C(/C#N)C(=O)O)cc1 [VII-14] | 30% | 190 ± 68 nM | – | – |
| CCCCCCOc1ccc(-c2nn(-c3ccc(Cl)cc3)cc2/C=C(/C#N)C(=O)O)cc1 [VII-15] | 48% | 83 ± 30 nM | – | – |
| CCCCCCCCOc1ccc(-c2nn(-c3ccccc3)cc2/C=C(/C#N)C(=O)O)cc1 [VII-16] | 46% | 209 ± 42 nM | – | – |
